The values that follow come from patent EP4772500A1, “NOVEL ISOXAZOLE COMPOUND AS TM4SF5-SPECIFIC INHIBITOR AND USE THEREOF” (Seoul National University R&DB Foundation, priority 2023, dated 2025).

The subject of assay [1] is SNU449-TM4SF5 cells. Description: Western blotting of NK cell stimulatory ligands. The assay is classed as cell-based, human. Particulars: SNU449-TM4SF5, given concentration, 24 hours (FIG. 13c). Here is the method: Cell extracts were obtained from cells grown to a density of 70-80% without any treatment, or from cells treated with vehicle DMSO or drugs at the given concentrations for 24 hours. For the extract of hepatocytes or liver cancer cells, a lysis buffer (150 mM NaCl, 1% NP-40, 50 mM Tris-HCl, 0.25% sodium deoxycholate, pH 7.4) including a protease inhibitor cocktail (GenDEPOT) was used. In addition, after washing animal liver tissue twice with PBS, SDS, Na3VO4, and protease inhibitor cocktails (GenDEPOT) were added to a lysis buffer [50 mM Tris-HCl, pH 7.4, 1% NP40, 0.25% sodium deoxycholate, 150 mM NaCl, 1 mM EDTA (based on 500 ml)], followed by treatment at 4°C for 15 minutes. […] After quantification using BCA reagent (Thermo Scientific), a 4 × sample buffer [100% glycerol 4 ml, Tris-HCl, pH 6.8, 2.4 ml, SDS 0.8 g, Bromophenol blue 4 mg, betamercaptoethanol 0.4 ml, H2O 3.1 ml (based on 10 ml)] was added, followed by boiling at 100°C for 5 minutes. […]
After 24 hours, vehicle DMSO, drug ST-1-025, or ST-5-002 was treated at the given concentrations. […] (f) After treating NK92-EV or NK92-TM4SF5 cells with DMSO or drugs ST-2-001 (1 nM), ST-3-005 (10 nM or 1 µM), ST-5-001, or ST-5-002 (100 nM or 1 µM) for 24 hours, the expression of SLAMF7 expressed on the cell surface was analyzed through immunostaining using flow cytometry. […]
Background: Immunoblotting shows a protein as a band on a membrane.

The test system of assay [2] is SNU449-TM4SF5 and Huh7-Con. Description: qRT-PCR/Western blotting of laminin γ2, AFP and liver cancer markers in TM4SF5-expressing hepatocytes. The settings on record: 2.5 µM, 24 hours (FIG. 8h-i). Format: cell-based, human.

Each structure is given as a SMILES string.

Regarding `COc1ccc(-c2cc(-c3ccc(N)cc3)no2)cc1` [ST-1-025, 4-(5-(4-methoxyphenyl)isoxazole-3-yl)aniline], the “expression of the stimulatory ligands (MICA/B, SLAMF6, and SLAMF7)” value in assay [1] is “increased again”. Turning to `Cc1ccc(C(=O)Nc2ccc(-c3cc(-c4ccc(O)cc4)no3)cc2)cc1` [ST-5-002, N-(4-(3-(4-hydroxyphenyl)isoxazole-5-yl)phenyl)-4-methylbenzamide], the “elevated expressions of laminin γ2, AFP, phosphorylation of STAT3, FUCA and CD34” value in assay [2] was “inhibited”.
